According to PubChem BioAssay (NCI):
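These data come from cells grown in 96-well plates and exposed to compound for 48 hours at five concentrations. Here, GI50 denotes the concentration required for 50% inhibition of growth. Definition used: TGI = concentration required for complete inhibition of growth.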

Key:
Experiment in all cases: DTP human tumour cell line panel, 48 h
[1] = system: MOLT-4 leukemia
[2] = system: BT-549 breast
[3] = system: HOP-92 NSCLC
[4] = system: NCI-H460 lung
[5] = system: NCI-H522 lung
[6] = system: IGROV1 ovarian
[7] = system: A498 renal
[8] = system: SF-539 CNS
[9] = system: SF-295 CNS
[10] = system: NCI/ADR-RES ovarian
[11] = system: A549 NSCLC
[12] = system: EKVX NSCLC
[13] = system: T-47D breast
[14] = system: SR leukemia
[15] = system: COLO 205 colon
[16] = system: SK-OV-3 ovarian
[17] = system: MDA-MB-435
[18] = system: SW-620 colon
[19] = system: SNB-75 CNS
[20] = system: KM12 colon
[21] = system: ACHN renal
[22] = system: SNB-19 CNS
[23] = system: SF-268 CNS
[24] = system: 786-0 renal
[25] = system: CCRF-CEM leukemia
[26] = system: HCT-116 colon
[27] = system: MCF7 breast
[28] = system: TK-10 renal
[29] = system: UACC-257 melanoma
[30] = system: HT29 colon
[31] = system: HL-60(TB) leukemia
[32] = system: PC-3 prostate
[33] = system: HCC-2998 colon
[34] = system: OVCAR-4 ovarian
[35] = system: DU-145 prostate
[36] = system: UO-31 renal
[37] = system: MDA-MB-231 breast
[38] = system: U251 CNS
[39] = system: SK-MEL-2 melanoma
[40] = system: NCI-H23 lung
[41] = system: UACC-62 melanoma
[42] = system: HOP-62 NSCLC
[43] = system: OVCAR-8 ovarian
[44] = system: CAKI-1 renal
[45] = system: OVCAR-3 ovarian
[46] = system: OVCAR-5 ovarian
[47] = system: SK-MEL-5 melanoma
[48] = system: LOX IMVI melanoma
[49] = system: K-562 leukemia
[50] = system: SN12C renal
[51] = system: MALME-3M melanoma
[52] = system: SK-MEL-28 melanoma
[53] = system: HCT-15 colon
[54] = system: RXF 393 renal
[55] = system: M14 melanoma
[56] = system: RPMI-8226 leukemia
[57] = system: NCI-H226 lung
[58] = system: HS 578T breast

C/C(=C\c1csc(C)n1)[C@@H]1C[C@@H]2O[C@@H]2CCC[C@H](C)[C@H](O)[C@@H](C)C(=O)C(C)(C)[C@@H](O)CC(=O)O1
TGI [1]: > 100 µM
TGI [2]: > 100 µM
TGI [3]: 0.608 µM
TGI [4]: > 100 µM
TGI [5]: < 0.0001 µM
TGI [6]: > 100 µM
TGI [7]: 0.333 µM
TGI [8]: < 0.0001 µM
TGI [9]: < 0.0001 µM
TGI [10]: 0.000598 µM
TGI [11]: > 100 µM
TGI [12]: 0.525 µM
TGI [13]: > 100 µM
TGI [14]: 0.00609 µM
TGI [15]: 0.0804 µM
TGI [16]: 0.398 µM
TGI [17]: < 0.0001 µM
TGI [18]: 18.7 µM
TGI [19]: < 0.0001 µM
TGI [20]: > 100 µM
TGI [21]: > 100 µM
TGI [22]: > 100 µM
TGI [23]: > 100 µM
TGI [24]: > 100 µM
TGI [25]: > 100 µM
TGI [26]: > 100 µM
TGI [27]: 0.349 µM
TGI [28]: > 100 µM
TGI [29]: > 100 µM
TGI [30]: 0.000586 µM
TGI [31]: > 100 µM
TGI [32]: > 100 µM
TGI [33]: < 0.0001 µM
GI50 [34]: 23 µM
TGI [34]: > 100 µM
TGI [35]: 0.00464 µM

Cn1c(-c2c(N)n(CCCN3CCOCC3)c3nc(C#N)c(C#N)nc23)nc2ccccc21
GI50 [1]: 6.73 µM
TGI [1]: > 67.6 µM
GI50 [2]: 16.1 µM
TGI [2]: > 64.5 µM
GI50 [3]: 2.73 µM
TGI [3]: 49.8 µM
GI50 [4]: > 42.5 µM
TGI [4]: > 64.3 µM
GI50 [36]: 6.36 µM
TGI [36]: 55.6 µM
GI50 [5]: 26.8 µM
TGI [5]: > 100 µM
GI50 [6]: > 100 µM
TGI [6]: > 100 µM
GI50 [37]: 7.87 µM
TGI [37]: > 53.1 µM
GI50 [38]: 9.7 µM
TGI [38]: > 63.8 µM
GI50 [7]: 39.4 µM
TGI [7]: 92.5 µM
GI50 [8]: 1.85 µM
TGI [8]: 7 µM
GI50 [9]: 19.6 µM
TGI [9]: > 58.1 µM
GI50 [39]: 45.3 µM
TGI [39]: > 100 µM
GI50 [10]: > 28.3 µM
TGI [10]: > 100 µM
GI50 [40]: 27 µM
TGI [40]: > 81.9 µM
GI50 [11]: 22.5 µM
TGI [11]: 46.3 µM
GI50 [12]: > 57 µM
TGI [12]: > 100 µM
GI50 [13]: 26.2 µM
TGI [13]: > 69.5 µM
GI50 [14]: 2.66 µM
TGI [14]: > 26.6 µM
GI50 [15]: > 42.8 µM
TGI [15]: > 61.7 µM
GI50 [41]: > 34.5 µM
TGI [41]: > 100 µM
GI50 [16]: 51.7 µM
TGI [16]: > 100 µM
GI50 [42]: 20.6 µM
TGI [42]: 77.6 µM
GI50 [43]: 4.99 µM
TGI [43]: > 100 µM
GI50 [44]: 7.52 µM
TGI [44]: > 49.6 µM
GI50 [45]: 1.8 µM
TGI [45]: 13.4 µM
GI50 [17]: > 100 µM
TGI [17]: > 100 µM
GI50 [46]: > 77.7 µM
TGI [46]: > 100 µM
TGI [47]: > 44.9 µM
GI50 [18]: 1.74 µM
TGI [18]: > 45 µM
GI50 [48]: 11.3 µM
TGI [48]: > 52.5 µM
GI50 [19]: 4.34 µM
TGI [19]: 25 µM
TGI [49]: > 74.7 µM
GI50 [20]: 12.4 µM
TGI [20]: 31.4 µM
GI50 [21]: 41.7 µM
TGI [21]: > 100 µM
GI50 [22]: 23.8 µM
TGI [22]: > 100 µM
GI50 [23]: 7.16 µM
TGI [23]: 62.2 µM
GI50 [24]: 24.7 µM
TGI [24]: > 69 µM
GI50 [50]: 8.85 µM
TGI [50]: > 80.2 µM
GI50 [25]: 2.69 µM
TGI [25]: > 28.9 µM
GI50 [26]: 4.03 µM
TGI [26]: > 33.4 µM
GI50 [51]: 31.9 µM
TGI [51]: > 83.7 µM
GI50 [52]: 3.03 µM
TGI [52]: 11.8 µM
TGI [53]: > 53.4 µM
GI50 [27]: 1.48 µM
TGI [27]: > 43.8 µM
GI50 [54]: 16.4 µM
TGI [54]: 45 µM
GI50 [28]: 32.7 µM
TGI [28]: 97.3 µM
GI50 [55]: > 100 µM
TGI [55]: > 100 µM
GI50 [56]: 0.909 µM
TGI [56]: > 52.7 µM
GI50 [29]: 25.7 µM
TGI [29]: > 100 µM
GI50 [57]: 27.8 µM
TGI [57]: > 52.9 µM
TGI [30]: > 72.4 µM
GI50 [31]: 0.704 µM
TGI [31]: 2.08 µM
GI50 [32]: 3.82 µM
TGI [32]: > 100 µM
GI50 [33]: 20.1 µM
TGI [33]: 40 µM
GI50 [34]: 17.9 µM
TGI [34]: > 100 µM
GI50 [35]: 3.68 µM
TGI [35]: 29.2 µM

COc1ccc2oc(=O)c(-c3csc(C)n3)cc2c1
TGI [1]: > 100 µM
TGI [2]: 29.2 µM
TGI [3]: 41.2 µM
TGI [4]: > 100 µM
TGI [36]: > 100 µM
TGI [6]: > 100 µM
TGI [37]: 68 µM
TGI [38]: 60.9 µM
TGI [8]: 57 µM
TGI [9]: 40 µM
TGI [39]: > 100 µM
TGI [11]: > 100 µM
TGI [12]: > 100 µM
TGI [14]: > 100 µM
TGI [15]: > 100 µM
TGI [41]: 73.1 µM
TGI [16]: 87.3 µM
TGI [42]: 84 µM
TGI [44]: > 100 µM
TGI [17]: > 100 µM
TGI [46]: > 100 µM
TGI [47]: > 100 µM
TGI [18]: > 100 µM
TGI [48]: > 100 µM
TGI [19]: 55.6 µM
TGI [49]: > 100 µM
TGI [20]: > 100 µM
TGI [21]: > 100 µM
TGI [22]: > 100 µM
TGI [23]: 50.3 µM
TGI [24]: > 100 µM
TGI [50]: > 100 µM
TGI [25]: > 100 µM
TGI [26]: > 100 µM
TGI [52]: > 100 µM
TGI [53]: > 100 µM
TGI [27]: > 100 µM
TGI [54]: > 100 µM
TGI [28]: 64.7 µM
TGI [55]: > 100 µM
TGI [56]: > 100 µM
TGI [29]: > 100 µM
TGI [57]: 89.1 µM
TGI [30]: > 100 µM
TGI [31]: > 100 µM
TGI [58]: 79.3 µM
TGI [32]: > 100 µM
TGI [33]: > 100 µM
TGI [34]: > 100 µM
TGI [35]: > 100 µM
